Measured values taken from patent US20120020915A1, “Compounds and Methods for Treating Cancer and Diseases of the Central Nervous System” (QUEENS UNIVERSITY AT KINGSTON, priority 2007, published 2012).
“Also recorded” adds a separate entry of the source.

How the values were obtained:
HO-2 (rat brain) = biological target: T1, HO-2 (rat brain) (Rattus norvegicus, UniProt P23711); experiment: HO enzymatic activity, rat brain microsomal fraction (CO formation from methemalbumin); assay type: biochemical; details: CO formation from methemalbumin, mean ± SD of replicate experiments, read-out: IC50 HO-2 (rat brain)/μM)
T1 construct: brain microsomes were used as a source of HO-2; from tissue; host or cells: brain microsomal fraction of adult male Sprague-Dawley rats
T1 sequence (P23711 1-315): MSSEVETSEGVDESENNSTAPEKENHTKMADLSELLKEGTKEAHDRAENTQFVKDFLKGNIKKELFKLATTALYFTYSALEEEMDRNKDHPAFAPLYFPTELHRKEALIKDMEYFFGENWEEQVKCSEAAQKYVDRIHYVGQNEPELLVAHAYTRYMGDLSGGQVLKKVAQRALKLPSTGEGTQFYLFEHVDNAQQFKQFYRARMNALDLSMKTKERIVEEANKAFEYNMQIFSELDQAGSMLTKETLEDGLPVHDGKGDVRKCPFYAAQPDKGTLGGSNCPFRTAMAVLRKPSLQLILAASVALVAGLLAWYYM

[1] = test system: SKMEL-V human melanoma cells; experiment: Human melanoma model SKMEL-V+ in SCID mice (pilot study), tumor growth; assay type: in vivo, Mouse (Mus musculus); SCID
From the text: Human melanoma cells (“SKMEL-V cells”) were derived from SKMEL-24 cells (ATCC) by over expression of mouse VEGF.
Only those cells with >95% viability were used for in-viva studies.
Once tumors reached a size of approximately 0.7 cm^3, they were removed under sterile condition, sliced into small pieces under a stereo-microscope. Each tissue piece was then re-inoculated subcutaneously. Only pieces of approximately the same size and with no signs of necrosis were used.
All data in this study are presented as mean±SE. Statistical analyses were performed by one-way ANOVA followed by Newman-Keuls post-hoc comparisons to assess significant main effects within groups. Statistical significance was set at p<0.05.

[2] = test system: B16-BL6 cells (mouse melanoma); experiment: Metastatic B16-BL6 melanoma model, lung surface metastases; assay type: in vivo; details: vehicle control: 101
Experimental: B16-BL6 cells (mouse melanoma). B16-BL6 metastatic variant was derived from B16-F10. This cell variant was obtained from Dr. Linda D. Williams, Dept. of Cancer Biology, MD Anderson Cancer Center, Texas, USA. […] Cells were maintained at 37° C. in a humidified atmosphere (5% CO2, 95% air).
(§1) Control groups received the vehicle alone.

[3] = test system: CD31-positive vessels in SKMEL-V+ tumors; experiment: CD31 immunohistochemistry / microvessel density of SKMEL-V+ tumors; assay type: in vivo, Mouse (Mus musculus), male SCID; details: QC-56 particularly at 60 mg/kg, hydrochloride, 60 mg/kg
Experimental: Cell cultures were maintained in 5% CO2/95% air at 37° C. SKMEL-V (human melanoma cells). SKMEL-V cells were derived from SKMEL-24 cells (ATCC) by overexpression of mouse VEGF. […] Tumors were either snap frozen in liquid nitrogen or fixed in 10% buffered formalin and embedded in paraffin. […] BD PharMingen, San Diego, Calif.). […] Sections were rehydrated in PBS and then blocked with 5% normal goat serum for 1 h. The sections were then incubated overnight at 4° C. with CD31 antibody diluted 1:25 in 3% BSA-PBS. […] Paraffin-embedded material was used for Harris' hematoxylin. Microvessel density was quantified using a method described by Weidner et al ([…], and Folkman […]. Med, 1991; 324:1-8). Briefly, randomly vascularized areas were selected (hot spots) under 40× field and 100× fields. Then a 400× field was used to count microvessels in each of these areas. Single endothelial cells or clusters of endothelial cells with or without lumen were considered to be individual vessels. […] All slides were examined blindly with no prior knowledge of the treatment status.

[4] = assay type: in vivo
From the text: as §1

## Cl.FC[C@@H]1CO[C@@](CCc2ccc(Cl)cc2)(Cn2ccnc2)O1 [QC-47, (2R,4S)-1-{2-[2-(4-Chlorophenyl)ethyl]-4-fluoromethyl-[1,3]dioxolan-2-ylmethyl}-1H-imidazole hydrochloride]
HO-2 (rat brain)
  IC50: > 100 µM

## Brc1ccc(CCC2(Cn3ccnc3)OCCO2)cc1.Cl [QC-56, 1-((2-(2-(4-Bromophenyl)ethyl)-1,3-dioxolan-2-yl)methyl)-1H-imidazole hydrochloride]
[1]; 30 mg/kg (P<0.03)
  tumor volume compared with vehicle alone: statistically significantly smaller
[1]; 60 mg/kg (P<0.02)
  tumor volume compared with vehicle alone: statistically significantly smaller
[2]
  macroscopic nodules in the lungs (average): 51 nodules
[3]
  vessel count / tumor vascularization (CD31): significant decrease in the size and number of blood vessels
[4]; QC-56 60 mg/kg ip, 4 cycles, chemotherapy drugs ip
  toxicity in the combination study: No apparent toxicity
[4]; multiple doses up to 100 mg/kg, intraperitoneal and intravenous routes, hydrochloride
  tolerability at multiple doses up to 100 mg/kg: well tolerated with no apparent signs of toxicity; also recorded: well tolerated
